According to US12024707B2, “Methods and compositions for modulating lncRNAs and methods of treatment based on lncRNA expression” (Washington University, priority 2020, dated 2024):
Several values for one entry are separate records, joined by “and”; a condition that tells them apart may be missing. Equal values may be shown once. Where a name gives a salt, the structure may show the parent alone. Read-outs that look alike come from different tables or passages of the source.

Assays:
[1] = test system: HT29 RAMS11 overexpressing cells; assay: High-throughput viability assay (resazurin), 119 FDA-approved anticancer drugs, RAMS11 overexpressing cells (Clone1, Clone2); details: for increase in drug resistance in HT29 RAMS11 overexpressing cells: topoisomerase inhibitors, vs empty vector cells; for increase in cellular viability compared with empty vector control cell line: HT29 RAMS11 overexpressing vs empty vector cells, treated 72 h; for effect of cell viability: HT29 RAMS11 overexpressing cells
[2] = test system: LoVo RAMS11 CRISPR KO cells; assay: Individual drug IC50 / cell viability assays in RAMS11 CRISPR KO cells; type: cell-based; details: for increase in drug sensitivity: LoVo RAMS11 CRISPR KO vs wild-type treated cells, 0.5 μM doxorubicin or 0.7 μM epirubicin; for effect of cell viability: LoVo RAMS11 CRISPR KO cells
Method: The NIH approved oncology library of 119 drugs (AOD6 plate 4825-1 and AOD6 plate 4826) was received from the NIH National Cancer Institute DTP Developmental Therapeutics Program. Drugs were diluted in DMSO to 1 mM and the well assignments were rearranged so drugs were confined to the inner 60 wells of 96-well plates. HT29 RAMS11 overexpressing Clone1 and Clone2 cell lines were seeded at 5000 cells per well in a 96-well plate. The next day serial diluted drug was added to pre-seeded plates in media containing 1% DMSO vehicle, using a Robbins Hydra 96 micro dispenser. Two 96-well plates of cells were used as vehicle controls. The plates were incubated for 3 days. Percent viability was scored by incubating cells for 3 h with resazurin sodium (0.023 mg/mL, Sigma R7017). The reaction was stopped by the addition of SDS (1% final concentration). Fluorescence Ex/Em 540/590 was read in a Biotek Synergy H1 plate reader (Winooski, VT). The fluorescence values for the vehicle plates were averaged and percent viability was determined by the formula: Percent viability=[…]/(average vehicle−average resazurin in media blank)×100. We removed drugs that were undetectable, or out of range, by resazurin assay, leaving 118 drugs to assess in the study (TABLE 3). Values with more than a 1.5-fold change in both RAMS11 Clone1 and Clone2 overexpressing cell lines were used to determine significance. Individual drug IC50 assays were done in a similar manner as described above with CRISPR KO cells. Assays were repeated more than three times.

[3] = test system: SW620 cells with silenced RAMS11; assay: Drug IC50 / cell viability assays in cells with transient silencing of RAMS11
[4] = OE1 (RAMS11 overexpression clone 1), 0.1 uM drug, 72 h, vs empty vector control
[5] = OE1 (RAMS11 overexpression clone 1), 1 uM drug, 72 h, vs empty vector control
[6] = OE1 (RAMS11 overexpression clone 1), 10 uM drug, 72 h, vs empty vector control
[7] = OE2 (RAMS11 overexpression clone 2), 0.1 uM drug, 72 h, vs empty vector control
[8] = OE2 (RAMS11 overexpression clone 2), 1 uM drug, 72 h, vs empty vector control
[9] = OE2 (RAMS11 overexpression clone 2), 10 uM drug, 72 h, vs empty vector control

| Compound | Viability Fold Change [1, 4] | Viability Fold Change [1, 5] | Viability Fold Change [1, 6] | Viability Fold Change [1, 7] | Viability Fold Change [1, 8] | Viability Fold Change [1, 9] | other results |
| --- | --- | --- | --- | --- | --- | --- | --- |
| CC1=C(/C=C/C(C)=C/C=C/C(C)=C/C(=O)O)C(C)(C)CCC1 [Tretinoin] | 1.161 | 1.226 | 1.142 | 1.068 | 1.373 | 1.336 |  |
| C1CN1c1nc(N2CC2)nc(N2CC2)n1 [Triethylenemelamine] |  |  |  |  |  |  | Viability Fold Change [1]: 1.287 and 1.238 and 0.9974 and 1.295 and 1.284 and 1.013 |
| Oc1ncc(N(CCCl)CCCl)c(O)n1 [Uracil mustard] |  |  |  |  |  |  | Viability Fold Change [1]: 0.8306 and 1.02 and 0.9705 and 0.9647 and 1.048 and 0.932 |
| CCCCC(=O)OCC(=O)[C@]1(O)Cc2c(O)c3c(c(O)c2[C@@H](O[C@H]2C[C@H](NC(=O)C(F)(F)F)[C@H](O)[C@H](C)O2)C1)C(=O)c1c(OC)cccc1C3=O [Valrubicin] | 0.9645 | 1.163 | 1.863 | 0.9166 | 1.213 | 1.792 |  |
| COc1cc2c(Nc3ccc(Br)cc3F)ncnc2cc1OCC1CCN(C)CC1 [Vandetanib] | 0.9025 | 0.8127 | 1.181 | 0.971 | 0.9162 | 1.142 |  |
| CCCS(=O)(=O)Nc1ccc(F)c(C(=O)c2c[nH]c3ncc(-c4ccc(Cl)cc4)cc23)c1F [Vemurafenib] | 0.6921 | 0.4381 | 0.569 | 0.762 | 0.5468 | 0.6144 |  |
| CC[C@]1(O)C[C@@H]2CN(CCc3c([nH]c4ccccc34)[C@@](C(=O)OC)(c3cc4c(cc3OC)N(C)[C@H]3[C@@](O)(C(=O)OC)[C@H](OC(C)=O)[C@]5(CC)C=CCN6CC[C@]43[C@@H]65)C2)C1 [Vinblastine sulfate] | 3.198 | 3.402 | 3.682 | 2.825 | 3.412 | 3.815 |  |
| CCC1=C[C@@H]2CN(C1)Cc1c([nH]c3ccccc13)[C@@](C(=O)OC)(c1cc3c(cc1OC)N(C)[C@H]1[C@@](O)(C(=O)OC)[C@H](OC(C)=O)[C@]4(CC)C=CCN5CC[C@]31[C@@H]54)C2 [Vinorelbine tartrate] | 0.9568 | 1.194 | 2.913 | 0.9481 | 1.067 | 2.913 |  |
| CS(=O)(=O)c1ccc(C(=O)Nc2ccc(Cl)c(-c3ccccn3)c2)c(Cl)c1 [Vismodegib] | 0.8416 | 0.9134 | 0.9421 | 0.9752 | 0.846 | 0.8976 |  |
| O=C(CCCCCCC(=O)Nc1ccccc1)NO [Vorinostat] | 1.123 | 0.8948 | 1.604 | 1.068 | 1.159 | 1.356 |  |
| O=P(O)(O)C(O)(Cn1ccnc1)P(=O)(O)O [Zoledronic acid] | 0.9494 | 0.9911 | 1.01 | 0.9595 | 1.055 | 1.082 |  |
| COc1cccc2c1C(=O)c1c(O)c3c(c(O)c1C2=O)C[C@@](O)(C(C)=O)C[C@@H]3O[C@H]1C[C@H](N)[C@H](O)[C@H](C)O1 [daunorubicin HCl, reference compound] | 1.103 | 2.258 | 3.761 | 1.084 | 2.098 | 3.726 | increase in drug resistance in HT29 RAMS11 overexpressing cells [1]: at least a two-fold increase in drug resistance |
| COc1cccc2c1C(=O)c1c(O)c3c(c(O)c1C2=O)C[C@@](O)(C(=O)CO)C[C@@H]3O[C@H]1C[C@H](N)[C@H](O)[C@H](C)O1 [doxorubicin HCl, reference compound] | 1.113 | 1.973 | 2.438 | 1.165 | 1.939 | 2.403 | increase in drug sensitivity [2]: 1.5 fold; increase in drug resistance in HT29 RAMS11 overexpressing cells [1]: at least a two-fold increase in drug resistance |
| COc1cccc2c1C(=O)c1c(O)c3c(c(O)c1C2=O)C[C@@](O)(C(=O)CO)C[C@@H]3O[C@H]1C[C@H](N)[C@@H](O)[C@H](C)O1 [epirubicin HCl, reference compound] |  |  |  |  |  |  | increase in drug sensitivity [2]: 1.5 fold; increase in drug resistance in HT29 RAMS11 overexpressing cells [1]: at least a two-fold increase in drug resistance |
| O=c1[nH]c(=O)n([C@H]2C[C@H](O)[C@@H](CO)O2)cc1F [floxuridine, reference compound] | 1.541 | 2.291 | 2.964 | 1.569 | 2.375 | 3.091 | increase in cellular viability compared with empty vector control cell line [1]: greatest resistance |
| Nc1ccn([C@@H]2O[C@H](CO)[C@@H](O)C2(F)F)c(=O)n1 [gemcitabine, reference compound] |  | 3.429 | 2.39 | 1.507 | 3.028 | 2.499 | increase in cellular viability compared with empty vector control cell line [1]: greatest resistance |
| CC(=O)[C@]1(O)Cc2c(O)c3c(c(O)c2[C@@H](O[C@H]2C[C@H](N)[C@H](O)[C@H](C)O2)C1)C(=O)c1ccccc1C3=O [idarubicin HCl, reference compound] |  |  |  |  |  |  | increase in drug resistance in HT29 RAMS11 overexpressing cells [1]: at least a two-fold increase in drug resistance |
| CCc1c2c(nc3ccc(OC(=O)N4CCC(N5CCCCC5)CC4)cc13)-c1cc3c(c(=O)n1C2)COC(=O)[C@]3(O)CC [irinotecan] |  |  |  |  |  |  | effect of cell viability [2]: did not see a significant effect; increase in drug sensitivity ([3]; SW620, RAMS11 siRNA1 relative to scrambled control): > 3.17 fold; increase in drug sensitivity ([3]; SW620, RAMS11 siRNA2 relative to scrambled control): > 11.8 fold; effect of cell viability [1]: did not see a significant effect |
| O=C1[O][Pt]2([NH][C@@H]3CCCC[C@H]3[NH]2)[O]C1=O [oxaliplatin, reference compound] | 0.9127 | 0.9881 | 1.33 | 0.9671 | 1.102 | 1.427 | effect of cell viability [2]: did not see a significant effect; effect of cellular viability ([3]; SW620 cells with silenced RAMS11): did not have a significant effect; effect of cell viability [1]: did not see a significant effect |
| CC[C@@]1(O)C(=O)OCc2c1cc1n(c2=O)Cc2cc3c(CN(C)C)c(O)ccc3nc2-1 [topotecan hydrochloride, reference compound] |  |  |  |  |  |  | increase in drug resistance in HT29 RAMS11 overexpressing cells [1]: at least a two-fold increase in drug resistance |
| Arsenic trioxide | 0.9683 | 0.9697 | 0.8821 | 1.015 |  | 1.115 |  |
| Bleomycin | 0.921 | 1.039 | 1.025 | 0.96 |  |  |  |
| Dabrafenib mesylate | 0.7923 | 0.8383 | 0.912 | 0.7733 | 0.8008 | 0.913 |  |
